Laboratory results: patent US12569565B2, “Compositions and methods for the treatment of viral infections” (Cidara Therapeutics, Inc., priority 2018, dated 2026)
Where “and” joins values, the source holds several entries; their conditions need not be identical. Equal entries are not always repeated. Where two headings read alike, the source gives them in different places.

Experiments:
[1] = 1 mg/mL in 1xPBS, over a week at 60° C.; HPLC 240 nm
[2] = test system: A/Puerto Rico/08/1934 (PR8), H1N1; type: in vivo, female BALB/c mice; settings: for % Survival: 10 days
[3] = test system: INFV A H1N1 A/Texas/36/91; assay: Lethal mouse influenza model, Study #3 (dosing 28 days before challenge); type: in vivo, female BALB/c mice; settings: 20 mg/kg PO twice daily 5 days from 8 h post infection
From the text: The experiment comprised 7 groups of 5 mice. At day 0, all mice were challenged with 1×LD90 H1N1 A/Texas/36/91. Groups 1-6 received treatment IV, 28 days before challenge (Table 12). Vehicle (PBS) was included as an additional negative control. […] All mice were monitored for survival (FIGS. 31A-31F) for 15 days after challenge.

[4] = test system: INFV A H1N1 A/Texas/36/91; assay: Lethal mouse influenza model, Study #1; type: in vivo, female BALB/c mice; settings: 20 mg/kg B.I.D PO 5 days from 8 h post infection
[5] = test system: INFV A H3N2 A/Hong Kong/1/68; assay: Lethal mouse influenza model, Study #2; type: in vivo, female BALB/c mice; settings: 20 mg/kg PO B.I.D for 5 days from 8 h post infection
[6] = test system: INFV A H1N1 A/Texas/36/91; assay: Lethal mouse influenza model, Study #4 (treatment window); type: in vivo, female BALB/c mice
From the text: The experiment comprised 13 groups of 5 mice. At day 0, all mice were challenged with 1×LD90 H1N1 A/Texas/36/91. […] Vehicle (PBS) and Fc only were included as negative controls. […] All mice were monitored for survival (FIGS. 32A-32F) for 15 days after challenge.

[7] = test system: Influenza A/Puerto Rico/8/1934 (H1N1); set-up: species or system female BALB/c mice; settings: mouse, in vivo
[8] = test system: influenza A/WSN/1933 (H1N1); assay: CPE assay at different multiplicities of infection (Example 94); type: cell-based, influenza A virus; settings: read-out: EC50 H1N1 A/WSN/1933 (CPE in MDCK cells)
IAV H1N1 A/Texas/36/91 = test system: IAV H1N1 A/Texas/36/91; set-up: species or system female BALB/c mice; settings: mouse, in vivo
[9] = test system: H1N1 A/Netherlands/602/2009; type: cell-based, influenza A virus
[10] = test system: Influenza B/Brisbane/60/2008; set-up: species or system female BALB/c mice; settings: mouse, in vivo
[11] = test system: Influenza A virus (INFV CA/09); type: cell-based
INFV A (A/CA/09 H1N1) = type: cell-based, influenza A virus
MDCK cells = settings: four days post treatment, dilutions starting at 10 μM
INFV CA/09 virus = type: cell-based, influenza virus
INFV B (B/Brisbane) = type: cell-based, influenza B virus

C#CCOCCOCCOCCOCCNC(=O)O[C@@H]([C@@H]1OC(C(=O)O)=C[C@H](NC(=N)N)[C@H]1NC(C)=O)[C@H](O)CO [Int-4]
degredation [1]: 15%

CC(=O)N[C@H]1[C@H]([C@H](OCC(=O)NCCCCNCCCCNC(=O)CO[C@@H]([C@@H]2OC(C(=O)O)=C[C@H](NC(=N)N)[C@H]2NC(C)=O)[C@H](O)CO)[C@H](O)CO)OC(C(=O)O)=C[C@@H]1NC(=N)N [Int-11]
% Survival [2]: 0%
% Survival ([2]; 15 mg/kg): 100%
delay in death relative to vehicle and hIgG1 Fc only controls ([2]; mouse, in vivo): ≤ 2 days
greater cumulative dose required for efficacy equivalent to conjugate 6 (mass basis) ([2]; mouse, in vivo): 500 ×

C#CCOCCOCCOCCOCCN(C)C(=O)O[C@@H]([C@H]1OC(C(=O)O)=C[C@@H](NC(=N)N)[C@@H]1NC(C)=O)[C@H](O)CO [Int-80]
degredation [1]: less than 1%

CCOC(=O)C1=C[C@@H](OC(CC)CC)[C@H](NC(C)=O)[C@@H](N)C1 [Oseltamivir phosphate]
survival [3]: survived
% Survival [4]: 100%
Mean Survival [4]: 15
Mean Survival [5]: 15 days
survival ([6]; 20 mg/kg PO bid × 5 days initiated at 48 hrs post-infection): 0%
survival ([6]; 20 mg/kg PO bid × 5 days initiated at 72 hrs post-infection): 20%

CCOC(=O)C1=C[C@@H](OC(CC)CC)[C@H](NC(C)=O)[C@@H](N)C1 [Oseltamivir, oseltamivir]
Log reduction (PFU/mL) [7]: 0.24 and 0.52
EC50 ([8]; MOI 0.001): 0.525 µM
EC50 ([8]; MOI 0.01): 1.9 µM
EC50 ([8]; MOI 0.1): > 10 µM
EC50 ([8]; MOI 1): > 10 µM
% Survival (Day 14) (IAV H1N1 A/Texas/36/91): 100%
% Survival [2]: 20%
EC100 (CPE in MDCK cells) [9]: ~1000 nM
% Survival [5]: 80%
Body weights [10]: 89 gm and 85 gm and 79 gm and 100 gm and 98 gm and 97 gm
survival [10]: 40%

CC(=O)N[C@H]1[C@H]([C@H](O)[C@H](O)CO)OC(C(=O)O)=C[C@@H]1N=C(N)N [Zanamivir, zanamivir]
EC50 ([8]; MOI 0.001): 0.137 µM
EC50 ([8]; MOI 0.01): 0.938 µM
EC50 ([8]; MOI 0.1): > 10 µM
EC50 ([8]; MOI 1): > 10 µM
EC50 [11]: 0.496 µM
EC50 (INFV A (A/CA/09 H1N1)): 0.265 µM
CC50 (MDCK cells): > 10 µM
EC50 (INFV CA/09 virus): 0.469 µM
EC50 (INFV B (B/Brisbane)): 0.383 µM

O=C1c2c(O)c(=O)ccn2N([C@@H]2c3ccccc3SCc3c2ccc(F)c3F)[C@@H]2COCCN12 [baloxavir]
EC50 ([8]; Influenza A virus, MDCK, MOI 0.001): 0.005 µM
EC50 ([8]; Influenza A virus, MDCK, MOI 0.01): 0.004 µM
EC50 ([8]; Influenza A virus, MDCK, MOI 0.1): 0.079 µM
EC50 ([8]; Influenza A virus, MDCK, MOI 1): > 0.1 µM
